The structures appear in SMILES notation. Active and inactive are the calls of the source. The calls are words filed in the database; no cut-off is given here.

By EC50 is commonly meant the concentration at which the effect is half-maximal.

For one assay, the target named is T1, 2-5A-dependent ribonuclease (Homo sapiens, UniProt Q05823).
T1 sequence (Q05823 whole entry): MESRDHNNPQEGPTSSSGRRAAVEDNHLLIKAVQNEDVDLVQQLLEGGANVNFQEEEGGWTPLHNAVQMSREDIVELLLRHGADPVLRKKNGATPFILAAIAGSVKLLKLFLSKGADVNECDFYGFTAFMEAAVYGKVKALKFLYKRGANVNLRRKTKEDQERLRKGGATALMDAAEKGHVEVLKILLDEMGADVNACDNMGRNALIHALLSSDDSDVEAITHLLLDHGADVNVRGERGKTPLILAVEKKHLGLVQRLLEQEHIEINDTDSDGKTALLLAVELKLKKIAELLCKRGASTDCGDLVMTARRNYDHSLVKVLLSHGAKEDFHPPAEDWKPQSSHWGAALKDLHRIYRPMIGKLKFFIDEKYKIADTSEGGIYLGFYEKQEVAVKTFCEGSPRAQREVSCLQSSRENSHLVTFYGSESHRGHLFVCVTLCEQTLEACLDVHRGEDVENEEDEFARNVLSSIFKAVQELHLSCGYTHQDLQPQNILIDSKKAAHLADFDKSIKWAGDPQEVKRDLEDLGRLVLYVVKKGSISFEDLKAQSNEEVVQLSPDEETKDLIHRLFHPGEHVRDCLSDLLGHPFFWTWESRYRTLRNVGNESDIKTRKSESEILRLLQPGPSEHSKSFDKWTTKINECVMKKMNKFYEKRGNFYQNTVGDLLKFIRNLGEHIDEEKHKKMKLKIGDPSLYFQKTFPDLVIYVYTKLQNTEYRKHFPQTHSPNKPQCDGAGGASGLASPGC
Description: Activation of human RNase L expressed in Escherichia coli BL21 (DE3) cells assessed as RNA cleavage using Cy5-rC11-UU-C7-BHQ2 as substrate by FRET assay.
As to `Nc1ncnc2c1ncn2[C@@H]1O[C@H](COP(=O)(O)O[C@@H]2[C@H](O)[C@@H](COP(=O)(O)CO[C@@H]3[C@H](O)[C@@H](COP(=O)(O)O[C@@H]4[C@H](O)[C@@H](COP(=O)(O)O)O[C@H]4n4cnc5c(N)ncnc54)O[C@H]3n3cnc4c(N)ncnc43)O[C@H]2n2cnc3c(N)ncnc32)[C@@H](O)[C@H]1O`, the EC50 is over 1000 nM. Still for that read-out and setting: to `Nc1ncnc2c1ncn2[C@@H]1O[C@H](COP(=O)(O)O[C@@H]2[C@H](O)[C@@H](COP(=O)(O)CO[C@H]3[C@H](O)[C@@H](COP(=O)(O)O[C@@H]4[C@H](O)[C@@H](COP(=O)(O)O)O[C@H]4n4cnc5c(N)ncnc54)O[C@H]3n3cnc4c(N)ncnc43)O[C@H]2n2cnc3c(N)ncnc32)[C@@H](O)[C@H]1O` belongs over 1000 nM; to `Nc1ncnc2c1ncn2[C@@H]1O[C@H](COP(=O)(O)O[C@@H]2[C@H](O)[C@@H](COP(=O)(O)CO[C@@H]3[C@@H](O)[C@@H](COP(=O)(O)O[C@@H]4[C@H](O)[C@@H](COP(=O)(O)O)O[C@H]4n4cnc5c(N)ncnc54)O[C@H]3n3cnc4c(N)ncnc43)O[C@H]2n2cnc3c(N)ncnc32)[C@@H](O)[C@H]1O`, over 1000 nM. The same measure, in the same setting: to `Nc1ncnc2c1ncn2[C@@H]1O[C@H](COP(=O)(O)O[C@@H]2[C@H](O)[C@@H](COP(=O)(O)O[C@@H]3[C@H](O)[C@@H](COP(=O)(O)O[C@@H]4[C@H](O)[C@@H](COCP(=O)(O)O)O[C@H]4n4cnc5c(N)ncnc54)O[C@H]3n3cnc4c(N)ncnc43)O[C@H]2n2cnc3c(N)ncnc32)[C@@H](O)[C@H]1O` belongs 53 nM. Same read-out and setting: to `Nc1ncnc2c1ncn2[C@@H]1O[C@H](COP(=O)(O)O[C@@H]2[C@H](O)[C@@H](COP(=O)(O)O[C@@H]3[C@@H](O)[C@@H](COCP(=O)(O)O[C@@H]4[C@H](O)[C@@H](COP(=O)(O)O)O[C@H]4n4cnc5c(N)ncnc54)O[C@H]3n3cnc4c(N)ncnc43)O[C@H]2n2cnc3c(N)ncnc32)[C@@H](O)[C@H]1O` belongs over 1000 nM.

A further assay addresses T2, 2-5A-dependent ribonuclease (Homo sapiens) (UniProt Q05823).
T2 sequence (whole entry): T1 sequence (Q05823 whole entry)
Description: Antagonist activity at human RNase L expressed in Escherichia coli BL21 (DE3) cells assessed as RNA cleavage using Cy5-C11-rUU-C7-BHQ2 as substrate by FRET assay in presence of natural activator pAAAA. The assay is classed as functional.
On to `Nc1ncnc2c1ncn2[C@@H]1O[C@H](COP(=O)(O)O[C@H]2[C@H](O)[C@@H](COCP(=O)(O)O[C@@H]3[C@H](O)[C@@H](COP(=O)(O)O[C@H]4[C@H](O)[C@@H](COCP(=O)(O)O)O[C@H]4n4cnc5c(N)ncnc54)O[C@H]3n3cnc4c(N)ncnc43)O[C@H]2n2cnc3c(N)ncnc32)[C@@H](O)[C@H]1O`, for which the inhibition entry is “inactive”.

Consider `Nc1ncnc2c1ncn2[C@@H]1O[C@H](COP(=O)(O)O[C@@H]2[C@H](O)[C@@H](COP(=O)(O)CO[C@H]3[C@H](O)[C@@H](COP(=O)(O)CO[C@H]4[C@H](O)[C@@H](COP(=O)(O)O)O[C@H]4n4cnc5c(N)ncnc54)O[C@H]3n3cnc4c(N)ncnc43)O[C@H]2n2cnc3c(N)ncnc32)[C@@H](O)[C@H]1O`, for which the inhibition result was “inactive”. Same read-out and setting: to `Nc1ncnc2c1ncn2[C@@H]1O[C@H](COCP(=O)(O)O[C@@H]2[C@@H](O)[C@@H](COCP(=O)(O)O[C@@H]3[C@@H](O)[C@@H](COCP(=O)(O)O[C@@H]4[C@@H](O)[C@@H](COCP(=O)(O)O)O[C@H]4n4cnc5c(N)ncnc54)O[C@H]3n3cnc4c(N)ncnc43)O[C@H]2n2cnc3c(N)ncnc32)[C@H](O)[C@H]1O` belongs “inactive”; to `Nc1ncnc2c1ncn2[C@@H]1O[C@H](COP(=O)(O)CO[C@@H]2[C@H](O)[C@@H](COP(=O)(O)CO[C@@H]3[C@H](O)[C@@H](COP(=O)(O)CO[C@@H]4[C@H](O)[C@@H](COP(=O)(O)O)O[C@H]4n4cnc5c(N)ncnc54)O[C@H]3n3cnc4c(N)ncnc43)O[C@H]2n2cnc3c(N)ncnc32)[C@@H](O)[C@H]1O`, “inactive”. Still for that read-out and setting: the value for `Nc1ncnc2c1ncn2[C@@H]1O[C@H](COP(=O)(O)CO[C@@H]2[C@@H](O)[C@@H](COP(=O)(O)CO[C@@H]3[C@@H](O)[C@@H](COP(=O)(O)CO[C@@H]4[C@@H](O)[C@@H](COP(=O)(O)O)O[C@H]4n4cnc5c(N)ncnc54)O[C@H]3n3cnc4c(N)ncnc43)O[C@H]2n2cnc3c(N)ncnc32)[C@@H](O)[C@H]1O` was “inactive”; that for `Nc1ncnc2c1ncn2[C@@H]1O[C@H](COP(=O)(O)CO[C@@H]2[C@H](O)[C@@H](COP(=O)(O)O[C@@H]3[C@H](O)[C@@H](COP(=O)(O)CO[C@@H]4[C@H](O)[C@@H](COP(=O)(O)O)O[C@H]4n4cnc5c(N)ncnc54)O[C@H]3n3cnc4c(N)ncnc43)O[C@H]2n2cnc3c(N)ncnc32)[C@@H](O)[C@H]1O` was “inactive”; that for `Nc1ncnc2c1ncn2[C@@H]1O[C@H](COCP(=O)(O)O[C@@H]2[C@H](O)[C@@H](COCP(=O)(O)O[C@@H]3[C@H](O)[C@@H](COCP(=O)(O)O[C@@H]4[C@H](O)[C@@H](COCP(=O)(O)O)O[C@H]4n4cnc5c(N)ncnc54)O[C@H]3n3cnc4c(N)ncnc43)O[C@H]2n2cnc3c(N)ncnc32)[C@@H](O)[C@H]1O` was “inactive”.

Take `Nc1ncnc2c1ncn2[C@@H]1O[C@H](COP(=O)(O)O[C@@H]2[C@H](O)[C@@H](COCP(=O)(O)O[C@@H]3[C@H](O)[C@@H](COP(=O)(O)O[C@@H]4[C@H](O)[C@@H](COCP(=O)(O)O)O[C@H]4n4cnc5c(N)ncnc54)O[C@H]3n3cnc4c(N)ncnc43)O[C@H]2n2cnc3c(N)ncnc32)[C@@H](O)[C@H]1O`: the inhibition entry was “inactive”. The same measure, in the same setting: to `Nc1ncnc2c1ncn2[C@@H]1O[C@H](COCP(=O)(O)O[C@H]2[C@H](O)[C@@H](COCP(=O)(O)O[C@H]3[C@H](O)[C@@H](COCP(=O)(O)O[C@H]4[C@H](O)[C@@H](COCP(=O)(O)O)O[C@H]4n4cnc5c(N)ncnc54)O[C@H]3n3cnc4c(N)ncnc43)O[C@H]2n2cnc3c(N)ncnc32)[C@@H](O)[C@@H]1O` belongs “inactive”; to `Nc1ncnc2c1ncn2[C@@H]1O[C@H](COCP(=O)(O)O[C@H]2[C@H](O)[C@@H](COCP(=O)(O)O[C@H]3[C@H](O)[C@@H](COCP(=O)(O)O[C@@H]4[C@H](O)[C@@H](COP(=O)(O)O)O[C@H]4n4cnc5c(N)ncnc54)O[C@H]3n3cnc4c(N)ncnc43)O[C@H]2n2cnc3c(N)ncnc32)[C@@H](O)[C@@H]1O`, “inactive”; to `Nc1ncnc2c1ncn2[C@@H]1O[C@H](COP(=O)(O)CO[C@H]2[C@H](O)[C@@H](COP(=O)(O)O[C@@H]3[C@H](O)[C@@H](COP(=O)(O)CO[C@H]4[C@H](O)[C@@H](COP(=O)(O)O)O[C@H]4n4cnc5c(N)ncnc54)O[C@H]3n3cnc4c(N)ncnc43)O[C@H]2n2cnc3c(N)ncnc32)[C@@H](O)[C@H]1O`, “inactive”. Same read-out and setting: the value for `Nc1ncnc2c1ncn2[C@@H]1O[C@H](COP(=O)(O)O[C@@H]2[C@H](O)[C@@H](COP(=O)(O)CO[C@@H]3[C@@H](O)[C@@H](COP(=O)(O)CO[C@@H]4[C@@H](O)[C@@H](COP(=O)(O)O)O[C@H]4n4cnc5c(N)ncnc54)O[C@H]3n3cnc4c(N)ncnc43)O[C@H]2n2cnc3c(N)ncnc32)[C@@H](O)[C@H]1O` was “inactive”. Still for that read-out and setting: to `Nc1ncnc2c1ncn2[C@@H]1O[C@H](COP(=O)(O)O[C@@H]2[C@H](O)[C@@H](COP(=O)(O)O[C@H]3[C@H](O)[C@@H](COCP(=O)(O)O[C@H]4[C@H](O)[C@@H](COCP(=O)(O)O)O[C@H]4n4cnc5c(N)ncnc54)O[C@H]3n3cnc4c(N)ncnc43)O[C@H]2n2cnc3c(N)ncnc32)[C@@H](O)[C@H]1O` belongs “inactive”; to `Nc1ncnc2c1ncn2[C@@H]1O[C@H](COP(=O)(O)O[C@@H]2[C@H](O)[C@@H](COCP(=O)(O)O[C@@H]3[C@H](O)[C@@H](COCP(=O)(O)O[C@@H]4[C@H](O)[C@@H](COP(=O)(O)O)O[C@H]4n4cnc5c(N)ncnc54)O[C@H]3n3cnc4c(N)ncnc43)O[C@H]2n2cnc3c(N)ncnc32)[C@@H](O)[C@H]1O`, “inactive”; to `Nc1ncnc2c1ncn2[C@@H]1O[C@H](COCP(=O)(O)O[C@@H]2[C@H](O)[C@@H](COP(=O)(O)O[C@@H]3[C@H](O)[C@@H](COP(=O)(O)O[C@@H]4[C@H](O)[C@@H](COCP(=O)(O)O)O[C@H]4n4cnc5c(N)ncnc54)O[C@H]3n3cnc4c(N)ncnc43)O[C@H]2n2cnc3c(N)ncnc32)[C@@H](O)[C@H]1O`, “inactive”. `Nc1ncnc2c1ncn2[C@@H]1O[C@H](COCP(=O)(O)O[C@@H]2[C@@H](O)[C@@H](COCP(=O)(O)O[C@@H]3[C@@H](O)[C@@H](COCP(=O)(O)O[C@@H]4[C@H](O)[C@@H](COP(=O)(O)O)O[C@H]4n4cnc5c(N)ncnc54)O[C@H]3n3cnc4c(N)ncnc43)O[C@H]2n2cnc3c(N)ncnc32)[C@H](O)[C@H]1O`: the inhibition result is “inactive”. Still for that read-out and setting: to `Nc1ncnc2c1ncn2[C@@H]1O[C@H](COCP(=O)(O)O[C@@H]2[C@H](O)[C@@H](COP(=O)(O)O[C@@H]3[C@H](O)[C@@H](COP(=O)(O)O[C@@H]4[C@@H](O)[C@@H](COCP(=O)(O)O)O[C@H]4n4cnc5c(N)ncnc54)O[C@H]3n3cnc4c(N)ncnc43)O[C@H]2n2cnc3c(N)ncnc32)[C@H](O)[C@H]1O` belongs “inactive”.

(Values after ChEMBL document CHEMBL2057064, “Activation of human RNase L by 2'- and 5'-O-methylphosphonate-modified oligoadenylates” (Bioorg Med Chem Lett, 2012).)
